Results from ChEMBL document CHEMBL5247647, “Phenothiazine-Based LSD1 Inhibitor Promotes T-Cell Killing Response of Gastric Cancer Cells” (J Med Chem, 2023).

Target: Lysine-specific histone demethylase 1A (Homo sapiens, UniProt O60341)
Test: Inhibition of recombinant LSD1 (unknown origin) expressed in Escherichia coli BL21 (DE3) using H3K4me2 peptide as substrate incubated for 30 mins by fluorescence based microplate reader assay

Q: How did the IC50 turn out when CN(C)CCCN1c2ccccc2Sc2ccc(C(F)(F)F)cc21 [TRIFLUPROMAZINE] was run?
A: > 10 µM
